# Laboratory results as given in BindingDB's records for doi:10.1016/j.bmcl.2009.09.014 (Johnson & Johnson Pharmaceutical, 2009).
# pIC50: −log10 of the molar value.
# Target: Cathepsin S (Homo sapiens, UniProt P25774)
# Assay: Cathepsn S Inhibition Assay
# Details: pH 5; 23 °C
# Procedure: Enzyme assays were run using fluorescence resonance energy transfer-based substrates, (Aedens)[…](Dabcyl)K-amide and cathepsin S cleaves between amino acids Leu-6 and Ala-7. The fluorescence of the aedens group is quenched by the dabcyl moiety in the intact peptide. Upon cleavage by cathepsin S, the quenching is released and the fluorescence of the aedens group can be measured. The increase in fluorescence was measured on a Cytofluor II (Applied Biosystems, Foster City, CA) with an excitation filter of 360/40 nm and an emission filter of 460/40 nm. A reading was made every minute for 20 to 60 min, and the slope obtained from a linear regression of this time course was used as the reaction rate. The reaction rates were determined for different inhibitor concentrations, and the percentage of inhibition was determined by comparison with the reaction rate in the absence of inhibitor. IC50 values were determined by four parameter fits of plots of the percentage of inhibition versus inhibitor concentration using the program GraFit (Erithacus Software Ltd.).
# Cathepsin S, sequence (P25774 whole entry): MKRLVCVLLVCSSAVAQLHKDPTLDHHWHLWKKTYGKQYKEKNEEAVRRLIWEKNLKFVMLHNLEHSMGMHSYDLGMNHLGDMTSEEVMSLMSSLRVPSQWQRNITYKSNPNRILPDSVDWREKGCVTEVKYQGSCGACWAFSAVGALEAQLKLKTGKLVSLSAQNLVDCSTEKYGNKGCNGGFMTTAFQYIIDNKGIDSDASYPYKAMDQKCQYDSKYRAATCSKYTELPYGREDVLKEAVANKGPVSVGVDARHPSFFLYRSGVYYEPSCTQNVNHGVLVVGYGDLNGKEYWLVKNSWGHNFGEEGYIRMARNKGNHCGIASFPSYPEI
row,pIC50,Structure (SMILES)
1,7.40,"COC(=O)C(=O)N1CCc2c(c(-c3ccc(Cl)c(C#Cc4ccc(Cl)cc4)c3)nn2CCCN2CCOCC2)C1 [arylalkyne pyrazole-based compound, 33]"
2,5.13,"C#Cc1cc(-c2nn(CCCN3CCOCC3)c3c2CN(S(C)(=O)=O)CC3)ccc1Cl [arylalkyne pyrazole-based compound, 11]"
